Experimental data: PubChem BioAssay (NCI)
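1) Cells in 96-well plates. 2) Compound, 48 h, 5 concentrations. 3) Linear interpolation between surrounding doses. 4) Unreached endpoint = highest concentration. At the GI50, growth is halved. TGI denotes the concentration required for complete inhibition of growth.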

Columns and labels:
Experiment in all cases: inhibition of tumour cell growth, NCI panel, 48 h
HS 578T breast = tested on: HS 578T breast
LOX IMVI melanoma = tested on: LOX IMVI melanoma
EKVX NSCLC = tested on: EKVX NSCLC
CAKI-1 renal = tested on: CAKI-1 renal
CCRF-CEM leukemia = tested on: CCRF-CEM leukemia
SK-MEL-2 melanoma = tested on: SK-MEL-2 melanoma
SF-539 CNS = tested on: SF-539 CNS
NCI-H226 lung = tested on: NCI-H226 lung
UACC-62 melanoma = tested on: UACC-62 melanoma
SNB-19 CNS = tested on: SNB-19 CNS

Q: Which results are given for `COc1cc(C2CC(c3cc(Cl)c(C)cc3O)=NN2c2ccc(S(N)(=O)=O)cc2)cc(OC)c1OC` (stereo not given)?
A: GI50 (HS 578T breast): 2.21 µM; TGI (HS 578T breast): 7.02 µM; GI50 (LOX IMVI melanoma): 2.08 µM; TGI (LOX IMVI melanoma): 4.28 µM; GI50 (EKVX NSCLC): 3.26 µM; TGI (EKVX NSCLC): 43.7 µM; GI50 (CAKI-1 renal): 2.55 µM; TGI (CAKI-1 renal): 16.9 µM; GI50 (CCRF-CEM leukemia): 4.51 µM; TGI (CCRF-CEM leukemia): > 100 µM; GI50 (SK-MEL-2 melanoma): 3.53 µM; TGI (SK-MEL-2 melanoma): 12 µM; GI50 (SF-539 CNS): 1.77 µM; TGI (SF-539 CNS): 3.37 µM; GI50 (NCI-H226 lung): 3.73 µM; TGI (NCI-H226 lung): 13.3 µM; GI50 (UACC-62 melanoma): 2.47 µM; TGI (UACC-62 melanoma): 8.5 µM; GI50 (SNB-19 CNS): 4.61 µM; TGI (SNB-19 CNS): 23.9 µM

Q: Which TGI (HS 578T breast) does the source give for `NS(=O)(=O)c1ccc(N=Nc2cc3ccccc3c(C(=O)O)c2O)cc1` here?
A: > 100 µM

Q: What about the TGI (LOX IMVI melanoma) of the same compound?
A: > 100 µM

Q: And the TGI (EKVX NSCLC)?
A: > 100 µM

Q: And the TGI (CAKI-1 renal)?
A: > 100 µM

Q: What about the TGI (CCRF-CEM leukemia) of the same compound?
A: > 100 µM

Q: And the TGI (SK-MEL-2 melanoma)?
A: > 67.1 µM

Q: And the TGI (SF-539 CNS)?
A: > 100 µM

Q: And the TGI (NCI-H226 lung)?
A: > 100 µM

Q: What about the TGI (UACC-62 melanoma) of the same compound?
A: 97 µM

Q: What about the TGI (SNB-19 CNS) of the same compound?
A: > 100 µM

Q: What does the source list for `C/C(=C\COc1ccc2ccc(=O)oc2c1)CCC(=O)C(C)(C)O`?
A: TGI (HS 578T breast): 78.2 µM; TGI (LOX IMVI melanoma): 32.8 µM; TGI (EKVX NSCLC): > 100 µM; TGI (CAKI-1 renal): > 100 µM; TGI (CCRF-CEM leukemia): 46.7 µM; TGI (SK-MEL-2 melanoma): > 100 µM; TGI (SF-539 CNS): 48.5 µM; TGI (NCI-H226 lung): 69.7 µM; TGI (UACC-62 melanoma): 37.1 µM; TGI (SNB-19 CNS): > 100 µM

Q: What does the source list for `COc1ccc(OC)c(/C=C/C(=O)c2ccc(SC)cc2)c1`?
A: GI50 (HS 578T breast): 3.81 µM; TGI (HS 578T breast): > 100 µM; GI50 (LOX IMVI melanoma): 12.3 µM; TGI (LOX IMVI melanoma): 28 µM; GI50 (EKVX NSCLC): 16.8 µM; TGI (EKVX NSCLC): 39.4 µM; GI50 (CAKI-1 renal): 2.39 µM; TGI (CAKI-1 renal): 18.5 µM; GI50 (CCRF-CEM leukemia): 2.22 µM; TGI (CCRF-CEM leukemia): 13.8 µM; GI50 (SK-MEL-2 melanoma): 6.12 µM; TGI (SK-MEL-2 melanoma): 20.4 µM; GI50 (SF-539 CNS): 2.55 µM; TGI (SF-539 CNS): 6.99 µM; GI50 (NCI-H226 lung): 28.9 µM; TGI (NCI-H226 lung): 88.4 µM; GI50 (UACC-62 melanoma): 15 µM; TGI (UACC-62 melanoma): 29.1 µM; GI50 (SNB-19 CNS): 9.68 µM; TGI (SNB-19 CNS): 46.5 µM

Q: With `COc1ccc2c(c1)/C(=N/OC(C)=O)c1c-2c(Nc2ccc(/C(C)=N/OC(C)=O)cc2)nc2ccccc12` as the compound, how does the GI50 (HS 578T breast) read?
A: 66 µM

Q: What about the TGI (HS 578T breast) of the same compound?
A: > 100 µM

Q: And the GI50 (LOX IMVI melanoma)?
A: 29.1 µM

Q: What about the TGI (LOX IMVI melanoma) of the same compound?
A: 63.5 µM

Q: And the GI50 (EKVX NSCLC)?
A: 82.1 µM

Q: And the TGI (EKVX NSCLC)?
A: > 100 µM

Q: What about the GI50 (CAKI-1 renal) of the same compound?
A: 31.8 µM

Q: And the TGI (CAKI-1 renal)?
A: 98.2 µM

Q: And the GI50 (CCRF-CEM leukemia)?
A: 23.9 µM

Q: And the TGI (CCRF-CEM leukemia)?
A: 47.4 µM

Q: And the GI50 (SK-MEL-2 melanoma)?
A: 83.1 µM

Q: What about the TGI (SK-MEL-2 melanoma) of the same compound?
A: > 100 µM

Q: And the GI50 (SF-539 CNS)?
A: > 100 µM

Q: And the TGI (SF-539 CNS)?
A: > 100 µM

Q: What about the GI50 (NCI-H226 lung) of the same compound?
A: > 100 µM

Q: What about the TGI (NCI-H226 lung) of the same compound?
A: > 100 µM

Q: And the GI50 (UACC-62 melanoma)?
A: 25.5 µM

Q: And the TGI (UACC-62 melanoma)?
A: 63.8 µM

Q: And the GI50 (SNB-19 CNS)?
A: > 100 µM

Q: What about the TGI (SNB-19 CNS) of the same compound?
A: > 100 µM

Q: How did the GI50 (HS 578T breast) turn out when `CN1CCN(Cc2ccc(NC(=O)c3cncc(C#Cc4cncc5[nH]ncc45)c3)cc2C(F)(F)F)CC1` was run?
A: 0.523 µM

Q: And the TGI (HS 578T breast)?
A: 2.45 µM

Q: What about the GI50 (LOX IMVI melanoma) of the same compound?
A: 0.171 µM

Q: And the TGI (LOX IMVI melanoma)?
A: 0.689 µM

Q: What about the GI50 (EKVX NSCLC) of the same compound?
A: 1.46 µM

Q: And the TGI (EKVX NSCLC)?
A: 6.27 µM

Q: And the GI50 (CAKI-1 renal)?
A: 0.79 µM

Q: What about the TGI (CAKI-1 renal) of the same compound?
A: 2.6 µM

Q: What about the GI50 (CCRF-CEM leukemia) of the same compound?
A: 1.25 µM

Q: And the TGI (CCRF-CEM leukemia)?
A: 5.07 µM

Q: And the GI50 (SK-MEL-2 melanoma)?
A: 0.295 µM

Q: And the TGI (SK-MEL-2 melanoma)?
A: 1.25 µM

Q: And the GI50 (SF-539 CNS)?
A: 0.411 µM

Q: And the TGI (SF-539 CNS)?
A: 1.28 µM

Q: What about the GI50 (NCI-H226 lung) of the same compound?
A: 0.206 µM

Q: And the TGI (NCI-H226 lung)?
A: 2.86 µM

Q: And the GI50 (UACC-62 melanoma)?
A: 0.336 µM

Q: And the TGI (UACC-62 melanoma)?
A: 1.31 µM

Q: What about the GI50 (SNB-19 CNS) of the same compound?
A: 3.81 µM

Q: What about the TGI (SNB-19 CNS) of the same compound?
A: 9.93 µM

Q: With `O=[N+]([O-])C1(CO)COC2(OC1)c1ccccc1-c1ccccc12` as the compound, how does the TGI (HS 578T breast) read?
A: > 100 µM

Q: What about the TGI (LOX IMVI melanoma) of the same compound?
A: 67.7 µM

Q: What about the TGI (EKVX NSCLC) of the same compound?
A: > 100 µM

Q: What about the TGI (CAKI-1 renal) of the same compound?
A: > 100 µM

Q: What about the TGI (CCRF-CEM leukemia) of the same compound?
A: 71 µM

Q: And the TGI (SK-MEL-2 melanoma)?
A: > 100 µM

Q: And the TGI (SF-539 CNS)?
A: > 85.6 µM

Q: What about the TGI (NCI-H226 lung) of the same compound?
A: > 100 µM

Q: What about the TGI (UACC-62 melanoma) of the same compound?
A: > 100 µM

Q: And the TGI (SNB-19 CNS)?
A: > 100 µM

Q: How did the GI50 (HS 578T breast) turn out when `O=C(Nc1ccc(I)cc1F)c1cc(F)ccc1O` was run?
A: 0.44 µM

Q: And the TGI (HS 578T breast)?
A: 5.29 µM

Q: And the GI50 (LOX IMVI melanoma)?
A: 0.418 µM

Q: What about the TGI (LOX IMVI melanoma) of the same compound?
A: 3.91 µM

Q: And the GI50 (EKVX NSCLC)?
A: 1.4 µM

Q: What about the TGI (EKVX NSCLC) of the same compound?
A: 9.01 µM

Q: What about the GI50 (CAKI-1 renal) of the same compound?
A: 0.342 µM

Q: And the TGI (CAKI-1 renal)?
A: 2.86 µM

Q: What about the GI50 (CCRF-CEM leukemia) of the same compound?
A: 1.85 µM

Q: And the TGI (CCRF-CEM leukemia)?
A: 12.4 µM

Q: And the GI50 (SK-MEL-2 melanoma)?
A: 0.367 µM

Q: What about the TGI (SK-MEL-2 melanoma) of the same compound?
A: 1.92 µM

Q: And the GI50 (SF-539 CNS)?
A: 0.444 µM

Q: What about the TGI (SF-539 CNS) of the same compound?
A: 7.07 µM

Q: And the GI50 (NCI-H226 lung)?
A: 0.985 µM

Q: What about the TGI (NCI-H226 lung) of the same compound?
A: 5.66 µM

Q: And the GI50 (UACC-62 melanoma)?
A: 0.259 µM

Q: What about the TGI (UACC-62 melanoma) of the same compound?
A: 0.853 µM

Q: What about the GI50 (SNB-19 CNS) of the same compound?
A: 0.406 µM

Q: And the TGI (SNB-19 CNS)?
A: > 100 µM

Q: How did the GI50 (HS 578T breast) turn out when `c1ccc(-c2nn(-c3ccccc3)[n+](-c3ccccc3-c3ccccc3)n2)cc1` was run?
A: 1.88 µM

Q: And the TGI (HS 578T breast)?
A: 31.5 µM

Q: What about the GI50 (LOX IMVI melanoma) of the same compound?
A: 1.02 µM

Q: And the TGI (LOX IMVI melanoma)?
A: 18.8 µM

Q: What about the GI50 (EKVX NSCLC) of the same compound?
A: 0.687 µM

Q: What about the TGI (EKVX NSCLC) of the same compound?
A: > 74.6 µM

Q: What about the GI50 (CAKI-1 renal) of the same compound?
A: 16.5 µM

Q: What about the TGI (CAKI-1 renal) of the same compound?
A: 89.9 µM

Q: What about the GI50 (CCRF-CEM leukemia) of the same compound?
A: 0.743 µM

Q: And the TGI (CCRF-CEM leukemia)?
A: 43.7 µM

Q: And the GI50 (SK-MEL-2 melanoma)?
A: 1.8 µM

Q: And the TGI (SK-MEL-2 melanoma)?
A: 7.69 µM

Q: What about the GI50 (SF-539 CNS) of the same compound?
A: 2.03 µM

Q: What about the TGI (SF-539 CNS) of the same compound?
A: 23.4 µM

Q: What about the GI50 (NCI-H226 lung) of the same compound?
A: 2.83 µM

Q: What about the TGI (NCI-H226 lung) of the same compound?
A: > 100 µM

Q: What about the GI50 (UACC-62 melanoma) of the same compound?
A: 0.74 µM

Q: What about the TGI (UACC-62 melanoma) of the same compound?
A: 14.9 µM

Q: And the GI50 (SNB-19 CNS)?
A: 1.24 µM

Q: What about the TGI (SNB-19 CNS) of the same compound?
A: > 80.7 µM

Q: What does the source list for `COc1cc2cc(Oc3ccc(NC(=O)Nc4cc(C(F)(F)F)cc(C(F)(F)F)c4)cc3)c(C)nc2cc1OCCN1CCCCC1`?
A: GI50 (HS 578T breast): 1.93 µM; TGI (HS 578T breast): 4.67 µM; GI50 (LOX IMVI melanoma): 1.71 µM; TGI (LOX IMVI melanoma): 3.17 µM; GI50 (EKVX NSCLC): 1.81 µM; TGI (EKVX NSCLC): 3.44 µM; GI50 (CAKI-1 renal): 1.42 µM; TGI (CAKI-1 renal): 2.86 µM; GI50 (CCRF-CEM leukemia): 2.11 µM; TGI (CCRF-CEM leukemia): 4.71 µM; GI50 (SK-MEL-2 melanoma): 1.85 µM; TGI (SK-MEL-2 melanoma): 3.57 µM; GI50 (SF-539 CNS): 1.65 µM; TGI (SF-539 CNS): 3.03 µM; GI50 (NCI-H226 lung): 1.7 µM; TGI (NCI-H226 lung): 3.96 µM; GI50 (UACC-62 melanoma): 1.82 µM; TGI (UACC-62 melanoma): 3.31 µM; GI50 (SNB-19 CNS): 1.71 µM; TGI (SNB-19 CNS): 3.18 µM
